Measured values reported in ChEMBL document CHEMBL5096145, “Evaluation of imidazo[2,1-b]thiazole-based anticancer agents in one decade (2011-2020): Current status and future prospects” (Bioorg Med Chem, 2021).

What was measured:
OVCAR-5 = assay: Cytotoxicity against human OVCAR-5 cells assessed as inhibition of cell growth; type: functional, cell-based
HeLa [1] = assay: Antiproliferative activity against human HeLa cells measured after 48 hrs by MTT assay; type: functional, cell-based
HepG2 [2] = assay: Antiproliferative activity against human HepG2 cells measured after 48 hrs by MTT assay; type: functional, cell-based; details: HepG2, 48 h
MCF7 [3] = assay: Antiproliferative activity against human MCF7 cells measured after 48 hrs by MTT assay; type: functional, cell-based; details: MCF7, 48 h
MDA-MB-231 [4] = assay: Induction of cell cycle arrest in human MDA-MB-231 cells assessed as accumulation of cells at G0/G1 phase measured at 1 uM incubated for 24 hrs by flow cytometric analysis relative to control; type: functional
A-375 [5] = assay: Cytotoxicity against human A-375 cells by MTT assay; type: functional, cell-based
MDA-MB-231 [6] = assay: Antiproliferative activity against human MDA-MB-231 cells measured after 48 hrs by MTT assay; type: functional, cell-based; details: MDA-MB-231, 48 h
A549 [7] = assay: Induction of apoptosis in human A549 cells assessed as increase in caspase-3 level at 1 uM measured after 48 hrs by ELISA method relative to control (RVB = 9.1 %); type: functional
A549 [8] = assay: Inhibition of tubulin polymerisation in human A549 cells relative to control; type: cell-based; details: dose or concentration not given here
A549 [9] = assay: Antiproliferative activity against human A549 cells incubated for 48 hrs by MTT assay; type: functional, cell-based; details: A549, 48 h
MDA-MB-231 [10] = assay: Antiproliferative activity human MDA-MB-231 cells; type: functional, cell-based
A549 [11] = assay: Antiproliferative activity human A549 cells; type: functional, cell-based
MCF7 [12] = assay: Antiproliferative activity human MCF7 cells; type: functional, cell-based
[13] = Inhibition of tubulin polymerisation in human A549; type: cell-based
[14] = Inhibition of BRAF V600E mutant in MEF cells incubated for 90 mins; type: cell-based, Mus musculus
UACC-62 [15] = assay: Induction of apoptosis in human UACC-62 cells assessed as increase in caspase-3/7 release at 0.18 uM relative to control; type: functional
A-375 [16] = assay: Antiproliferative activity against human A375 cells measured after 48 hrs by MTT assay; type: functional, cell-based; details: A-375, 48 h
SK-MEL-28 = assay: Antiproliferative activity against human SK-MEL-28 cells measured after 48 hrs by MTT assay; type: functional, cell-based; details: SK-MEL-28, 48 h
UACC-62 [17] = assay: Antiproliferative activity against human UACC-62 cells measured after 48 hrs by MTT assay; type: functional, cell-based; details: UACC-62, 48 h
MDA-MB-435 = assay: Antiproliferative activity against human MDA-MB-435 cells measured after 48 hrs by MTT assay; type: functional, cell-based; details: MDA-MB-435, 48 h
SR [18] = assay: Anticancer activity against human SR cells incubated for 48 hrs by SRB staining assay relative to control; type: functional
CCRF-CEM = assay: Anticancer activity against human CCRF-CEM cells incubated for 48 hrs by SRB staining assay; type: functional
HCT-15 = assay: Anticancer activity against human HCT-15 cells incubated for 48 hrs by SRB staining assay; type: functional
MDA-MB-231 [19] = assay: Anticancer activity against human MDA-MB-231 cells incubated for 48 hrs by SRB staining assay; type: functional
SF-268 = assay: Anticancer activity against human SF-268 cells incubated for 48 hrs by SRB staining assay; type: functional
NCI-H322M = assay: Anticancer activity against human NCI-H322M cells incubated for 48 hrs by SRB staining assay; type: functional
OVCAR-3 = assay: Anticancer activity against human OVCAR-3 cells incubated for 48 hrs by SRB staining assay; type: functional
CAKI-1 = assay: Anticancer activity against human CAKI-1 cells incubated for 48 hrs by SRB staining assay; type: functional
DU-145 = assay: Anticancer activity against human DU-145 cells incubated for 48 hrs by SRB staining assay relative to control; type: functional
SR [20] = assay: Anticancer activity against human SR cells incubated for 48 hrs by SRB staining assay; type: functional
UO-31 = assay: Anticancer activity against human UO-31 cells incubated for 48 hrs by SRB staining assay; type: functional
HL-60(TB) = assay: Anticancer activity against human HL-60(TB) cells incubated for 48 hrs by SRB staining assay relative to control; type: functional
NCI-H460 = assay: Anticancer activity against human NCI-H460 cells incubated for 48 hrs by SRB staining assay; type: functional
HeLa [21] = assay: Cytotoxicity against human HeLa cells expressing EGFR assessed as reduction in cell viability incubated for 24 hrs by MTT assay; type: functional, cell-based
L02 = assay: Cytotoxicity against human HL7702 cells expressing EGFR assessed as reduction in cell viability incubated for 24 hrs by MTT assay; type: functional, cell-based; details: L02, 24 h
HepG2 [22] = assay: Cytotoxicity against human HepG2 cells expressing EGFR assessed as reduction in cell viability incubated for 24 hrs by MTT assay; type: functional, cell-based; details: HepG2, 24 h
HUVEC = assay: Cytotoxicity against HUVEC expressing EGFR assessed as reduction in cell viability incubated for 24 hrs by MTT assay; type: functional, cell-based; details: Homo sapiens
HCT-116 = assay: Anticancer activity against human HCT-116 cells measured after 48 hrs by MTT assay; type: functional, cell-based; details: HCT-116, 48 h

For `COc1ccc(-c2nc3sccn3c2/C=C/C(=O)c2cc(OC)c(OC)c(OC)c2)cc1`, the IC50 (OVCAR-5) was 1.99 µM.
`O=C1NC(=S)NC(=O)C1=Cc1c(-c2ccc(Cl)cc2)nc2scc(-c3cc4ccccc4oc3=O)n12` showed an IC50 (HeLa [1]) of 5.18 µM, an IC50 (HepG2 [2]) of 13.9 µM and an IC50 (MCF7 [3]) of 17 µM.
`O=C1Nc2ccccc2/C1=C\c1c(-c2ccc(Br)cc2)nc2scc(-c3cc4ccccc4oc3=O)n12` gave an IC50 (HeLa [1]) of 6.77 µM and an IC50 (MCF7 [3]) of 10.8 µM.
`COc1ccc(-c2nc3sccn3c2/C=N/NC(=O)c2cccc(O)c2)cc1` gave an Activity (MDA-MB-231 [4]) of 72.4%.
`CCCS(=O)(=O)Nc1ccc(F)c(C(=O)c2c[nH]c3ncc(-c4ccc(Cl)cc4)cc23)c1F` [VEMURAFENIB] gave an IC50 (A-375 [5]) of 5.9 µM.
Work on `COc1ccc2c(c1)sc1nc(/C=C/C(=O)c3ccc(OC)c(O)c3)cn12` yielded an IC50 (MDA-MB-231 [6]) of 1.3 µM.
`COC(=O)Nc1nc2cc(C(=O)c3cccs3)ccc2[nH]1` [NOCODAZOLE] gave an Activity (A549 [7]) of 62.9%, an inhibition (A549 [8]) of 64.7% and an IC50 (A549 [9]) of 1.81 µM. For the same compound, the IC50 (MDA-MB-231 [6]) was 1.9 µM, the IC50 (MDA-MB-231 [10]) was 2.37 µM and the IC50 (A549 [11]) was 1.14 µM. It also gave an IC50 (MCF7 [12]) of 2.37 µM and an IC50 [13] of 1.99 µM.
With `O=C(NCCNc1nccc(-c2c(-c3cccc(O)c3)nc3sccn23)n1)c1ccccc1` the IC50 [14] was 0.19 µM, the Activity (UACC-62 [15]) was 53.33% and the IC50 (A-375 [16]) was 0.18 µM. It also gave an IC50 (SK-MEL-28) of 0.18 µM, an IC50 (UACC-62 [17]) of 0.18 µM and an IC50 (MDA-MB-435) of 0.18 µM.
Work on `O=C(Cc1csc2nc(-c3ccc(Cl)cc3)cn12)N/N=C/c1ccccc1O` yielded an Activity (SR [18]) of 11.51%, a GI50 (CCRF-CEM) of 0.741 µM and a GI50 (HCT-15) of 0.468 µM. For the same compound, the GI50 (MDA-MB-231 [19]) was 1.58 µM, the GI50 (SF-268) was 1.26 µM and the GI50 (NCI-H322M) was 1.55 µM. For the same compound, the GI50 (OVCAR-3) was 0.363 µM, the GI50 (CAKI-1) was 0.776 µM and the Activity (DU-145) was 108.65%. The GI50 (SR [20]) was 0.603 µM, the GI50 (UO-31) was 0.501 µM and the Activity (HL-60(TB)) was 103.5%. For the same compound, the GI50 (NCI-H460) was 1.38 µM.
Compound `O=C(/C=C\Nc1cnc2ccccc2c1)c1c(-c2ccccc2)nc2sccn12` has an IC50 (MDA-MB-231 [10]) of 4.6 µM, an IC50 (A549 [11]) of 0.4 µM and an IC50 (MCF7 [12]) of 4.6 µM.
For `O=C(Cc1csc2nc3ccccc3n12)Nc1ccccc1O`, the IC50 (HeLa [21]) was 0.42 µM, the IC50 (L02) was > 100 µM and the IC50 (HepG2 [22]) was > 100 µM. The IC50 (HUVEC) was > 100 µM.
`C/C(=N\N=C1\S/C(=N\Nc2ccccc2)C(=O)N1N)c1sc2nc(-c3ccc(C)cc3)cn2c1C` gave an IC50 (HCT-116) of 1.1 µM.
